From patent US9994547B2, “Heteroarylamide inhibitors of TBK1” (Takeda Pharmaceutical Company Limited, priority 2014, dated 2018) come the findings set out here.

Chain of Full length human TBK1 (Q9UHD2 whole entry): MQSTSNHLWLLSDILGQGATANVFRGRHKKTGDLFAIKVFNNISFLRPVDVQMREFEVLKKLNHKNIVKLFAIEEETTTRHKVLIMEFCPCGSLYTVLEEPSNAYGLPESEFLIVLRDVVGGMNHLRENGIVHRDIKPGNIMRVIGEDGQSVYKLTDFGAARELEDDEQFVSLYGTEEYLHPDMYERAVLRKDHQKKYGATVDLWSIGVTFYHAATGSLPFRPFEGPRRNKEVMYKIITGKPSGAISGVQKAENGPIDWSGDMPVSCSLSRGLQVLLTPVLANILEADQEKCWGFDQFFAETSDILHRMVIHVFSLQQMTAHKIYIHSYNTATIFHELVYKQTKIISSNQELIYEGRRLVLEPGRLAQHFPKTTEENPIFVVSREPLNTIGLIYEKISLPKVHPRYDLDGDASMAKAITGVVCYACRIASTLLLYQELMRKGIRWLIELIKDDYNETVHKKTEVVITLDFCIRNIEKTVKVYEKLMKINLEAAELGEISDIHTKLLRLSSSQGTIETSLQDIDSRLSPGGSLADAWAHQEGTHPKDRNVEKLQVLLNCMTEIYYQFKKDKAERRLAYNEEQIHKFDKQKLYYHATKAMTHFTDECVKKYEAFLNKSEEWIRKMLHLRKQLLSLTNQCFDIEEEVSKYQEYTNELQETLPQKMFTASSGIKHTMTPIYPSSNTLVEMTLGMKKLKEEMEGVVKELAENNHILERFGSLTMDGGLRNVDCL

In this assay the target is Full length human TBK1 (Homo sapiens (Human), UniProt Q9UHD2). The assay is described as follows: Inhibition of TBK1 Enzyme (Example A). The assay is classed as biochemical. To be noted: -log(IC50), IC50 molar; 3 nM TBK1, 25 μM ATP, 60 min RT. As to the method:
Full length human TBK1 with an N-terminal His-tag was cloned into the pFastBacl vector and was transfected into Sf9 cells. 72 hours later the virus was harvested and amplified through two additional rounds of infections. Then 400 mL of the resulting virus stock was used to infect 10 L of Sf9 cells at a density of 2×10^6 cells/mL. Cell pellets were harvested 48 hours post infection and were lysed by freeze-thaw, homogenization and sonication in binding buffer (25 mM Tris pH7.6, 1 M NaCl, 10 mM imidazole, 0.5 mM TCEP) plus 0.1% Triton X-100 and complete protease inhibitor cocktail. The lysate was spun and the supernatant was purified with a HisTrap FF crude and a Superdex 200 pg column.
TBK1 inhibition is determined using a 384 well plate format in buffer containing 20 mM Hepes, pH 7.4, 10 mM MgCl2, 1 mM EDTA, 0.01% Brij-L23, 1 mM DTT. Each test compound is prepared in DMSO using 2.5-fold serial dilutions for 11 data points, which are added to the buffer so that each dilution contains 1% DMSO. To each well is added 2 μL of 1 μM 5FAM-DRHDSGLDSMKDE-NH2 (in buffer), 2 μL of diluted test compound (1% DMSO in buffer), and 5 μL of 3 nM TBK1 and 25 μM ATP (in buffer). The reaction mixture is incubated at RT for 60 min, and quenched by adding 20 mM Hepes, pH 7.4, 10 mM MgCl2, 1 mM EDTA, 0.01% Brij-L23, 1 mM DTT+25 mM EDTA. To quantify the fluorescent-labeled substrate and product following reaction, the test plate is loaded on a Caliper LC-3000, which measures percent of conversion by microfluidic-based separation. Corresponding IC50 values are calculated by non-linear curve fitting of the compound concentrations and percent of inhibition to the standard IC50 equation and reported as pIC50, i.e., −log(IC50), where IC50 is the molar concentration.
Take `COCCNC(=O)[C@H](C)Nc1cc(-c2cnc(NC(=O)C3CC3)cn2)ccc1C#N` [Example 15, (S)-N-(5-(4-cyano-3-((1-((2-methoxyethyl)amino)-1-oxopropan-2-yl)amino)phenyl)pyrazin-2-yl)cyclopropanecarboxamide]: the “TBK1 Inhibition (pIC50)” value stood at 5.8.
Turning to `COC1CN(C(=O)[C@H](C)Nc2cc(-c3cnc(NC(=O)C4CC4)cn3)ccc2C#N)C1` [Example 16, (S)-N-(5-(4-cyano-3-((1-(3-methoxyazetidin-1-yl)-1-oxopropan-2-yl)amino)phenyl)pyrazin-2-yl)cyclopropanecarboxamide], the “TBK1 Inhibition (pIC50)” value is given as 6.3.
On to `COCCN(C)C(=O)[C@H](C)Nc1cc(-c2cnc(NC(=O)C3CC3)cn2)ccc1C#N` [Example 17, (S)-N-(5-(4-cyano-3-((1-((2-methoxyethyl)(methyl)amino)-1-oxopropan-2-yl)amino)phenyl)pyrazin-2-yl)cyclopropanecarboxamide], for which the “TBK1 Inhibition (pIC50)” value stood at 7.1.
Under `CN(C)C(=O)C(CO)Nc1cc(-c2cnc(NC(=O)C3CC3)cn2)ccc1C#N` (stereo not drawn) [Example 18, N-(5-(4-cyano-3-((1-(dimethylamino)-3-hydroxy-1-oxopropan-2-yl)amino)phenyl)pyrazin-2-yl)cyclopropanecarboxamide] stands 7.5.
As for `C[C@H](Nc1cc(-c2cnc(NC(=O)C3CC3)cn2)ccc1C#N)C(=O)N(C)CCO` [Example 19, (S)-N-(5-(4-cyano-3-((1-((2-hydroxyethyl)(methyl)amino)-1-oxopropan-2-yl)amino)phenyl)pyrazin-2-yl)cyclopropanecarboxamide], the figure is 7.7.
`CCN(C)C(=O)CNc1cc(-c2cnc(NC(=O)C3CC3)cn2)ccc1C#N` [Example 20, N-(5-(4-cyano-3-((2-(ethyl(methyl)amino)-2-oxoethyl)amino)phenyl)pyrazin-2-yl)cyclopropanecarboxamide]: the “TBK1 Inhibition (pIC50)” value is 7.4.
Under `N#Cc1ccc(-c2cnc(NC(=O)C3CC3)cn2)cc1NCC(=O)N1CCC1` [Example 21, N-(5-(3-((2-(azetidin-1-yl)-2-oxoethyl)amino)-4-cyanophenyl)pyrazin-2-yl)cyclopropanecarboxamide] stands 6.6; under `COC1CN(C(=O)CNc2cc(-c3cnc(NC(=O)C4CC4)cn3)ccc2C#N)C1` [Example 22, N-(5-(4-cyano-3-((2-(3-methoxyazetidin-1-yl)-2-oxoethyl)amino)phenyl)pyrazin-2-yl)cyclopropanecarboxamide], 6.0; under `CC[C@H](Nc1cc(-c2cnc(NC(=O)C3CC3)cn2)ccc1C#N)C(=O)N(C)C` [Example 23, (S)-N-(5-(4-cyano-3-((1-(dimethylamino)-1-oxobutan-2-yl)amino)phenyl)pyrazin-2-yl)cyclopropanecarboxamide], 7.7.
Take `N#Cc1ccc(-c2cnc(NC(=O)C3CC3)cn2)cc1NCC(=O)N1CC(F)(F)C1` [Example 24, N-(5-(4-cyano-3-((2-(3,3-difluoroazetidin-1-yl)-2-oxoethyl)amino)phenyl)pyrazin-2-yl)cyclopropanecarboxamide]: the “TBK1 Inhibition (pIC50)” value was found to be 6.8.
As for `CN(C(=O)CNc1cc(-c2cnc(NC(=O)C3CC3)cn2)ccc1C#N)C1CC1` [Example 25, N-(5-(4-cyano-3-((2-(cyclopropyl(methyl)amino)-2-oxoethyl)amino)phenyl)pyrazin-2-yl)cyclopropanecarboxamide], the figure is 7.4.
Under `CC[C@@H](Nc1cc(-c2cnc(NC(=O)C3CC3)cn2)ccc1C#N)C(=O)N(C)C` [Example 26, (R)-N-(5-(4-cyano-3-((1-(dimethylamino)-1-oxobutan-2-yl)amino)phenyl)pyrazin-2-yl)cyclopropanecarboxamide] stands 8.5; under `N#Cc1ccc(-c2cnc(NC(=O)C3CC3)cn2)cc1NCC(=O)N1CCC(O)C1` (stereo not drawn) [Example 27, N-(5-(4-cyano-3-((2-(3-hydroxypyrrolidin-1-yl)-2-oxoethyl)amino)phenyl)pyrazin-2-yl)cyclopropanecarboxamide], 6.9.
Under `CN(C)C(=O)C(CCO)Nc1cc(-c2cnc(NC(=O)C3CC3)cn2)ccc1C#N` (stereo not drawn) [Example 28, N-(5-(4-cyano-3-((1-(dimethylamino)-4-hydroxy-1-oxobutan-2-yl)amino)phenyl)pyrazin-2-yl)cyclopropanecarboxamide] stands 6.9; under `CCC(Nc1cc(-c2cnc(NC(=O)C3CC3)cn2)ccc1C#N)C(=O)N(C)CCO` (stereo not drawn) [Example 29, N-(5-(4-cyano-3-((1-((2-hydroxyethyl)(methyl)amino)-1-oxobutan-2-yl)amino)phenyl)pyrazin-2-yl)cyclopropanecarboxamide], 7.8.
For the compound `C[C@@H](Nc1cc(-c2cnc(NC(=O)C3CC3)cn2)cnc1C#N)C(=O)N(C)C` [Example 30, (R)-N-(5-(6-cyano-5-((1-(dimethylamino)-1-oxopropan-2-yl)amino)pyridin-3-yl)pyrazin-2-yl)cyclopropanecarboxamide], the “TBK1 Inhibition (pIC50)” value is 5.8.
As for `CC[C@@H](Nc1cc(-c2cnc(NC(=O)C3CC3)cn2)cnc1C#N)C(=O)N(C)C` [Example 31, (R)-N-(5-(6-cyano-5-((1-(dimethylamino)-1-oxobutan-2-yl)amino)pyridin-3-yl)pyrazin-2-yl)cyclopropanecarboxamide], the figure is 6.3.
Take `C[C@@H](O)[C@H](Nc1cc(-c2cnc(NC(=O)C3CC3)cn2)cnc1C#N)C(=O)N(C)C` [Example 32, N-(5-(6-cyano-5-(((2S,3R)-1-(dimethylamino)-3-hydroxy-1-oxobutan-2-yl)amino)pyridin-3-yl)pyrazin-2-yl)cyclopropanecarboxamide]: the “TBK1 Inhibition (pIC50)” value was 6.8.
With `CN(C)C(=O)[C@@H](CC(F)F)Nc1cc(-c2cnc(NC(=O)C3CC3)cn2)ccc1C#N` [Example 33, (R)-N-(5-(4-cyano-3-((1-(dimethylamino)-4,4-difluoro-1-oxobutan-2-yl)amino)phenyl)pyrazin-2-yl)cyclopropanecarboxamide], the “TBK1 Inhibition (pIC50)” value came out at 5.9.
Under `CN(C)C(=O)[C@H](CC(F)F)Nc1cc(-c2cnc(NC(=O)C3CC3)cn2)ccc1C#N` [Example 34, (S)-N-(5-(4-cyano-3-((1-(dimethylamino)-4,4-difluoro-1-oxobutan-2-yl)amino)phenyl)pyrazin-2-yl)cyclopropanecarboxamide] stands 8.2; under `CCC(Nc1cc(-c2cnc(NC(=O)C3CC3)cn2)cnc1C#N)C(=O)N(C)CCO` (stereo not drawn) [Example 35, N-(5-(6-cyano-5-((1-((2-hydroxyethyl)(methyl)amino)-1-oxobutan-2-yl)amino)pyridin-3-yl)pyrazin-2-yl)cyclopropanecarboxamide], 6.9; under `CCC(Nc1cc(-c2cnc(NC(=O)C3CC3)cn2)cnc1C#N)C(=O)N(C)C1CC1` (stereo not drawn) [Example 36, N-(5-(6-cyano-5-((1-(cyclopropyl(methyl)amino)-1-oxobutan-2-yl)amino)pyridin-3-yl)pyrazin-2-yl)cyclopropanecarboxamide], 7.3.
With `C[C@@H](O)[C@@H](Nc1cc(-c2cnc(NC(=O)C3CC3)cn2)cnc1C#N)C(=O)N(C)C` [Example 37, N-(5-(6-cyano-5-(((2R,3R)-1-(dimethylamino)-3-hydroxy-1-oxobutan-2-yl)amino)pyridin-3-yl)pyrazin-2-yl)cyclopropanecarboxamide], the “TBK1 Inhibition (pIC50)” value is given as 6.9.
As for `C[C@H](O)[C@@H](Nc1cc(-c2cnc(NC(=O)C3CC3)cn2)cnc1C#N)C(=O)N(C)C` [Example 38, N-(5-(6-cyano-5-(((2R,3S)-1-(dimethylamino)-3-hydroxy-1-oxobutan-2-yl)amino)pyridin-3-yl)pyrazin-2-yl)cyclopropanecarboxamide], the figure is 5.8; as for `C[C@H](O)[C@H](Nc1cc(-c2cnc(NC(=O)C3CC3)cn2)cnc1C#N)C(=O)N(C)C` [Example 39, N-(5-(6-cyano-5-(((2S,3S)-1-(dimethylamino)-3-hydroxy-1-oxobutan-2-yl)amino)pyridin-3-yl)pyrazin-2-yl)cyclopropanecarboxamide], 7.0.
`CN(CC(F)(F)F)C(=O)CNc1cc(-c2cnc(NC(=O)C3CC3)cn2)cnc1C#N` [Example 40, N-(5-(6-cyano-5-((2-(methyl(2,2,2-trifluoroethyl)amino)-2-oxoethyl)amino)pyridin-3-yl)pyrazin-2-yl)cyclopropanecarboxamide]: the “TBK1 Inhibition (pIC50)” value is reported as 7.5.
As for `CC(Nc1cc(-c2cnc(NC(=O)C3CC3)cn2)cnc1C#N)C(=O)N(C)CC(F)(F)F` (stereo not drawn) [Example 41, N-(5-(6-cyano-5-((1-(methyl(2,2,2-trifluoroethyl)amino)-1-oxopropan-2-yl)amino)pyridin-3-yl)pyrazin-2-yl)cyclopropanecarboxamide], the figure is 7.8.
